Measured values taken from patent US20220241308A1, “NEURONAL FUNCTION MODULATING AGENT” (University of Tsukuba, priority 2019, published 2022).

Columns and labels:
Format in all cases: cell-based
[1] = tested on: MAPK14 (mitogen-activated protein kinase 14); experiment: Gene expression experiment (real-time PCR) in SH-SY5Y cells: MAPK14; settings: 24 h
Description: (§1) SH-SY5Y cells were seeded in 100 mm-cell dishes (BD Biocoat) at concentrations of 3.7×10^5 cells/mL (10 mL/dish) and cultured for 24 h at 37° C. and 5% CO2. Culture medium used was F12/DMEM (Gibco) supplemented with 1% non-essential amino acids (Gibco), 15% FBS (Bio West), and 1% penicillin/streptomycin (Lonza). After 24 h, the culture medium was completely removed with an aspirator, 10 mL of culture medium Opti-MEM(Gibco) was added to each dish, and the cells were cultured for 24 h at 37° C. and 5% CO2. RNA was extracted from the culture cells and analyzed for the expression of genes described below by real-time PCR (designated as “Control” in FIGS. 2 to 8).
(§2) RNA extraction was performed using ISOGEN Reagent (Nippon Gene Co., Ltd.) in accordance with the protocol recommended by Nippo n Gene Co., Ltd. (see URL: https://www.nippongene.com/siyaku/product/extraction/tds/tds_isogen-rna-dna-protein.pdf). Real-time PCR was performed according to the protocol recommended by Thermo Fisher Scientific using a reagent kit for TaqMan Real-Time PCR (Thermo Fisher Scientific) (see URL: https://assets.thermofisher.com/TFS-Assets/LSG/manuals/4304449_TaqManPCRMM_UG.pdf).
(§3) 24 h after seeding 100 mm-cell dishes (BD Biocoat) with SH-SY5Y cells, the culture medium was completely removed with an aspirator, amyloid β protein (Beta-Amyloid 1-42, AnaSpec) was mixed with Opti-MEM (Gibco) so that the final concentration was 5 μM, 10 mL of the mixture was added to each dish, the cells were cultured for 24 h at 37° C. and 5% CO2, and RNA was extracted. Except for performing the procedure described above, gene expression was analyzed as described above (designated as “Aβ” in FIGS. 2 to 8).
(§4) 24 h after seeding 100 mm-cell dishes (BD Biocoat) with SH-SY5Y cells, the culture medium was completely removed with an aspirator, Sample 1 was mixed with culture medium Opti-MEM(Gibco) so that the final concentration was 12.56 μM, 9,990 μL of the mixture was added to each dish and allowed to stand for 10 min, amyloid β protein (Beta-Amyloid 1-42, AnaSpec) was mixed with Opti-MEM (Gibco) so that the final concentration was […], 10 μL of the mixture was added to each well, the cells were cultured for 24 h at 37° C. and 5% CO2, and RNA was extracted. Except for performing the procedure described above, Gene expression was analyzed as described above (designated as “Aβ+M3,5G” in FIGS. 2 to 8).
(§5) Except that Sample 2 was used instead of Sample 1, gene expression was analyzed as described above (designated as “Aβ+M” in FIGS. 2 to 8).
Except that Sample 3 was used instead of Sample 1, gene expression was analyzed as described above (designated as “Aβ+M3G” in FIGS. 2 to 8). […]

[2] = tested on: MAP2K4 (mitogen-activated protein kinase 4); experiment: Gene expression experiment (real-time PCR) in SH-SY5Y cells: MAP2K4; settings: for expression of MAP2K4: 24 h
Description: as §1, §2, §3, §4, §5
Except that Sample 3 was used instead of Sample 1, gene expression was analyzed as described above (designated as “Aβ+M3G” in FIGS. 2 to 8).
24 h after seeding 100 mm-cell dishes (BD Biocoat) with SH-SY5Y cells, the culture medium was completely removed with an aspirator, 10 mL of culture medium Opti-MEM(Gibco) mixed with Sample 1 was added to each dish, the cells were cultured for 24 h at 37° C. and 5% CO2, and RNA was extracted. Except for performing the procedure described above, gene expression was analyzed as described above (designated as “M3,5G” in FIGS. 2 to 8).

SH-SY5Y cells = experiment: Reactive oxygen species measurement experiment (OxiSelect Intracellular ROS assay kit); settings: 12.56 μM with amyloid β protein 5 μM, 1 h
Description: Specifically, OxiSelect™ Intracellular ROS assay kit (Cell Biolabs Ink) was used to measure the reactive oxygen species level according to protocol recommended by Cell Biolabs Ink (URL: https://www.cellbiolabs.com/sites/default/files/STA-342-ROS-assay-kit.pdf)) of Cell Biolabs Ink Co., Ltd. (designated as “Control” in FIG. 10).
Each well of a 96-well plate (BD Biocoat) was seeded with SH-SY5Y cells (ATCC, model of neuronal cells) at a concentration of 2×10^5 cells/mL (100 μL/well) and the cells cultured at 37° C. and 5% CO2 for 24 h. Culture medium used was F12/DMEM (Gibco) supplemented with 1% non-essential amino acids (Gibco), 15% FBS (Bio West), and 1% penicillin/streptomycin (Lonza).
After 24 h, the culture medium was completely removed with an aspirator, 20×DCFH-DA (reagent included in the assay kit) was mixed with culture medium Opti-MEM (Gibco) (reagent was diluted 20 times), 100 μL of the mixture was added to each well, and the cells were cultured at 37° C. and 5% CO2 for 1 h. The culture medium Opti-MEM with 20×DCFH-DA was then completely removed with an aspirator, […] of fresh Opti-MEM (Gibco) was added to each well, and the cells were cultured at 37° C. and 5% CO2 for 1 h. […] Fluorescence at 480 nm/530 nm was measured on a microplate reader (Sumitomo Dainippon Pharma) to find the relative ROS production (designated as “Control” in FIG. 10). […]

[3] = 12.56 μM, amyloid β protein-treated cells, compared to “Aβ”
[4] = Sample 1 alone, no amyloid β, compared to “Control”

## COc1cc(-c2[o+]c3cc(O)cc(OC4OC(CO)C(O)C(O)C4O)c3cc2OC2OC(CO)C(O)C(O)C2O)cc(OC)c1O (centres unmarked) [M3,5G, Malvidin-3,5-diglucoside chloride]
[1]; [3]
  expression of MAPK14: significantly high
[1]; [4]
  expression of MAPK14: significantly increased
[2]; [3]
  expression of MAP2K4: significantly high
[2]; 12.56 μM, amyloid β protein-treated cells, compared to “Control”
  expression of MAP2K4: significantly high
[2]; [4]
  expression of MAP2K4: significantly increased
[2]; amyloid β protein-treated cells, 12.56 μM, ranked against malvidin and malvidin-3-glucoside
  activity in increasing the expression of MAP2K4: highest activity
SH-SY5Y cells; compared to “Aβ”
  ROS production: significant reductions
SH-SY5Y cells; compared to “Control”
  ROS production: no significance
